From US20160368895A1, “PULMONARY HYPERTENSION TREATING AGENT” (THE UNIVERSITY OF TOKYO, priority 2013, published 2016)

Each molecule was assayed against T1, human PGI2 receptors (hIP) (Homo sapiens, UniProt P43119) (assay: Method A: positive allosteric modulator activity, cAMP in CHO/hIP cells with 100 pM iloprost). Details: cAMP relative to 100 pM iloprost alone, test compound 5 uM.
T1 construct: expressed in transfected cells; host or cells: CHO-K1
Format: cell-based
Experimental: The positive allosteric modulator activity of a test compound was measured as a change in the amount of intracellular cyclic AMP (cAMP) in the presence of 100 pM of the IP agonist iloprost (manufactured by CAYMAN CHEMICAL), using CHO-K1 cells (CHO/hIP cells) in which human PGI2 receptors (hIP) are stably expressed.
An amount of 5 μL of a mixture (diluted in F-12 culture medium (manufactured by GIBCO) including 0.1% BSA) of iloprost dissolved in DMSO and a test compound dissolved in DMSO was dispensed in advance into a 384-well black microplate, and 5 μL of CHO/hIP cells suspended at a concentration of 1.6×10^6 cells/mL in F-12 culture medium including 0.1% BSA were added to the microplate. After 40 minutes of incubation at room temperature, the amount of cAMP was measured using a cAMP assay kit (cAMP HiRange, manufactured by Cisbio Bioassays). Specifically, 5 μL of a cAMP-d2 solution (including a cell lysate) from the kit were added and the reaction was stopped, then 5 μL of a fluorescence-labeled cAMP antibody solution from the kit was added and incubation was performed for 1 hour at room temperature, after which fluorescence was measured using a PHERAstar plate reader (manufactured by BMG) in HTRF (registered trademark) mode. The amount of cAMP in each well was calculated from a cAMP calibration curve obtained using a standard sample, and the activity of each test compound is noted below as a ratio T/C (%) based on the amount of cAMP for 100 pM of isoprost alone. All of the compounds included in this table were purchased from Asinex Corporation.

T1 sequence (P43119 whole entry): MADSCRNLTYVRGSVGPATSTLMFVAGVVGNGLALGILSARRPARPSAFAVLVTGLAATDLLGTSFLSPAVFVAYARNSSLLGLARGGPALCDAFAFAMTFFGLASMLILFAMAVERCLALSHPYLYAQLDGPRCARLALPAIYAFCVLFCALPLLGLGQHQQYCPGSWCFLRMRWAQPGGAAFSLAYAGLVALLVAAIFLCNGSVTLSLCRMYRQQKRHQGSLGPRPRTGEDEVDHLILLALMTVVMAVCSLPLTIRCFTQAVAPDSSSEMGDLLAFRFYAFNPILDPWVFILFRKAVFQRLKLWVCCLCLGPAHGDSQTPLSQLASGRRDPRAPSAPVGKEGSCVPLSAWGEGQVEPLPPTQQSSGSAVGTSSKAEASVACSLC

Going from COc1ccc(C(c2nnnn2Cc2ccccc2)N2CCc3ccccc3C2)cc1OC (stereo not shown) to CC(C)(C)n1nnnc1C(c1ccccc1)N1CCc2ccccc2C1 (stereo not shown) [drawing 104], the T/C % rises from 90% to 143%.

Going from Cc1ccc(S(=O)(=O)Cn2nnnc2C(c2ccc(O)cc2)N2CCc3ccccc3C2)cc1 (stereo not shown) to Cc1ccc(C(c2nnnn2C(C)(C)C)N2CCc3ccccc3C2)cc1 (stereo not shown) [drawing 143], the T/C % rises from 104% to 112%.

Molecule CC(C)(C)n1nnnc1C(c1ccc(Cl)cc1)N1CCc2ccccc2C1 (stereo not shown) [drawing 118] has a T/C % of 113%.

Same assay, conditions: cAMP relative to 100 pM iloprost alone, test compound 10 uM

First: Cc1ccc(Cn2nnnc2C(c2ccccc2)N2CCc3ccccc3C2)cc1 (stereo not shown)
Second: Cc1ccc(C(c2nnnn2Cc2ccccc2)N2CCc3ccccc3C2)cc1 (stereo not shown) [drawing 121]
The T/C % of the first is higher: 117% for the first, 112% for the second.

Compared with CCC(C)(C)n1nnnc1C(c1ccccc1)N1CCc2ccccc2C1 (stereo not shown), CCC(C)(C)n1nnnc1C(c1ccc(Cl)cc1)N1CCc2ccccc2C1 (stereo not shown) is lower in T/C %: 202% for the first, 148% for the second.

Going from CN(C)c1ccc(C(c2nnnn2C2CCCC2)N2CCc3ccccc3C2)cc1 (stereo not shown) to Cc1ccc(C(c2nnnn2C2CCCC2)N2CCc3ccccc3C2)cc1 (stereo not shown), the T/C % rises from 103% to 105%.

First: COc1ccc(OC)c(C(c2nnnn2C(C)(C)C)N2CCc3ccccc3C2)c1 (stereo not shown)
Second: COc1ccc(C(c2nnnn2C(C)(C)C)N2CCc3ccccc3C2)cc1OC (stereo not shown)
The T/C % of the first is lower: 100% for the first, 103% for the second.

Going from COc1ccc(C(c2nnnn2CS(=O)(=O)c2ccc(C)cc2)N2CCc3ccccc3C2)cc1 (stereo not shown) to Cc1ccc(S(=O)(=O)Cn2nnnc2C(c2ccc(F)cc2)N2CCc3ccccc3C2)cc1 (stereo not shown), the T/C % falls from 101% to 93%.

Going from Cc1ccc(C(c2nnnn2C2CCCCC2)N2CCc3ccccc3C2)cc1 (stereo not shown) to Fc1ccc(C(c2nnnn2C2CCCCC2)N2CCc3ccccc3C2)cc1 (stereo not shown), the T/C % rises from 100% to 104%.

First: Clc1ccc(C(c2nnnn2C2CCCC2)N2CCc3ccccc3C2)cc1 (stereo not shown)
Second: Fc1ccc(C(c2nnnn2C2CCCC2)N2CCc3ccccc3C2)cc1 (stereo not shown)
The T/C % of the first is higher: 110% for the first, 108% for the second.

Compared with CCC(C)(C)n1nnnc1C(c1ccc(OC)c(OC)c1)N1CCc2ccccc2C1 (stereo not shown), CCC(C)(C)n1nnnc1C(c1ccc(O)c(OC)c1)N1CCc2ccccc2C1 (stereo not shown) is higher in T/C %: 103% for the first, 122% for the second.

Going from COc1ccc(C(c2nnnn2CCc2ccccc2)N2CCc3ccccc3C2)c(OC)c1 (stereo not shown) to COc1ccc(OC)c(C(c2nnnn2CCc2ccccc2)N2CCc3ccccc3C2)c1 (stereo not shown), the T/C % falls from 106% to 78%.

Going from c1ccc(Cn2nnnc2C(c2ccccc2)N2CCc3ccccc3C2)cc1 (stereo not shown) to c1ccc(CCn2nnnc2C(c2ccccc2)N2CCc3ccccc3C2)cc1 (stereo not shown) [drawing 106], the T/C % rises from 112% to 128%.

Going from CCC(C)(C)n1nnnc1C(c1ccc(F)cc1)N1CCc2ccccc2C1 (stereo not shown) to CCC(C)(C)n1nnnc1C(c1ccccc1OC)N1CCc2ccccc2C1 (stereo not shown), the T/C % rises from 155% to 215%.

First: COc1ccc(C(c2nnnn2CCc2ccccc2)N2CCc3ccccc3C2)cc1OC (stereo not shown)
Second: COc1cc(C(c2nnnn2CCc2ccccc2)N2CCc3ccccc3C2)ccc1O (stereo not shown)
The T/C % of the first is higher: 106% for the first, 91% for the second.

Going from COc1ccc(C(c2nnnn2Cc2ccccc2)N2CCc3ccccc3C2)c(OC)c1 (stereo not shown) to COc1ccc(OC)c(C(c2nnnn2Cc2ccccc2)N2CCc3ccccc3C2)c1 (stereo not shown), the T/C % falls from 103% to 90%.

First: COCCn1nnnc1C(c1ccc(O)cc1OC)N1CCc2ccccc2C1 (stereo not shown)
Second: COCCn1nnnc1C(c1ccccc1OC)N1CCc2ccccc2C1 (stereo not shown)
The T/C % of the first is lower: 97% for the first, 107% for the second.

Compared with COc1ccc(OC)c(C(c2nnnn2C2CCCCC2)N2CCc3ccccc3C2)c1 (stereo not shown), COc1ccc(OC)c(C(c2nnnn2C2CCCC2)N2CCc3ccccc3C2)c1 (stereo not shown) is higher in T/C %: 82% for the first, 92% for the second.

Compared with COc1ccc(OC)c(C(c2nnnn2Cc2ccc(C)cc2)N2CCc3ccccc3C2)c1 (stereo not shown), COc1ccc(C(c2nnnn2Cc2ccc(C)cc2)N2CCc3ccccc3C2)cc1 (stereo not shown) is higher in T/C %: 91% for the first, 112% for the second.

Compared with COCCn1nnnc1C(c1cc(OC)ccc1OC)N1CCc2ccccc2C1 (stereo not shown), COCCn1nnnc1C(c1ccc(OC)c(OC)c1)N1CCc2ccccc2C1 (stereo not shown) is higher in T/C %: 90% for the first, 98% for the second.

First: Cc1ccc(Cn2nnnc2C(c2ccc(Cl)cc2)N2CCc3ccccc3C2)cc1 (stereo not shown)
Second: Cc1ccc(C(c2nnnn2Cc2ccc(F)cc2)N2CCc3ccccc3C2)cc1 (stereo not shown)
The T/C % of the first is lower: 109% for the first, 117% for the second.

First: Cc1ccc(C(c2nnnn2CCc2ccccc2)N2CCc3ccccc3C2)cc1 (stereo not shown)
Second: Cc1ccc(C(c2nnnn2Cc2ccccc2)N2CCc3ccccc3C2)cc1 (stereo not shown) [drawing 140]
The T/C % of the first is higher: 108% for the first, 102% for the second.

First: Oc1ccc(C(c2nnnn2C2CCCCC2)N2CCc3ccccc3C2)cc1 (stereo not shown)
Second: Oc1ccc(C(c2nnnn2C2CCCC2)N2CCc3ccccc3C2)cc1 (stereo not shown)
The T/C % of the first is lower: 104% for the first, 105% for the second.

Compared with Oc1ccc(C(c2nnnn2Cc2ccc(F)cc2)N2CCc3ccccc3C2)cc1 (stereo not shown), Cc1ccc(Cn2nnnc2C(c2ccc(F)cc2)N2CCc3ccccc3C2)cc1 (stereo not shown) is lower in T/C %: 113% for the first, 106% for the second.

Going from COc1cc(C(c2nnnn2C2CCCCC2)N2CCc3ccccc3C2)ccc1O (stereo not shown) to COc1ccc(C(c2nnnn2C2CCCCC2)N2CCc3ccccc3C2)cc1OC (stereo not shown), the T/C % falls from 97% to 87%.

First: COc1cc(C(c2nnnn2Cc2ccccc2)N2CCc3ccccc3C2)ccc1O (stereo not shown)
Second: COc1cc(C(c2nnnn2Cc2ccc(F)cc2)N2CCc3ccccc3C2)ccc1O (stereo not shown)
The T/C % of the first is higher: 94% for the first, 91% for the second.

First: COc1ccc(Cn2nnnc2C(c2ccccc2)N2CCc3ccccc3C2)cc1 (stereo not shown)
Second: COc1ccc(C(c2nnnn2Cc2ccccc2)N2CCc3ccccc3C2)cc1 (stereo not shown)
The T/C % of the first is lower: 104% for the first, 110% for the second.

Going from Fc1ccc(C(c2nnnn2CCc2ccccc2)N2CCc3ccccc3C2)cc1 (stereo not shown) to COc1ccc(C(c2nnnn2CCc2ccccc2)N2CCc3ccccc3C2)cc1 (stereo not shown), the T/C % rises from 103% to 114%.

First: COc1ccc(Cn2nnnc2C(c2ccc(OC)cc2)N2CCc3ccccc3C2)cc1 (stereo not shown)
Second: COc1ccc(C(c2nnnn2Cc2ccc(F)cc2)N2CCc3ccccc3C2)cc1OC (stereo not shown)
The T/C % of the first is higher: 105% for the first, 96% for the second.

First: COc1ccc(C(c2nnnn2C2CCCC2)N2CCc3ccccc3C2)cc1OC (stereo not shown)
Second: COc1ccc(C(c2nnnn2C2CCCCC2)N2CCc3ccccc3C2)c(OC)c1 (stereo not shown)
The T/C % of the first is lower: 93% for the first, 113% for the second.

First: COc1ccc(C(c2nnnn2C2CCCCC2)N2CCc3ccccc3C2)cc1 (stereo not shown)
Second: c1ccc(C(c2nnnn2C2CCCCC2)N2CCc3ccccc3C2)cc1 (stereo not shown) [drawing 120]
The T/C % of the first is lower: 111% for the first, 112% for the second.

First: COCCn1nnnc1C(c1ccc(F)cc1)N1CCc2ccccc2C1 (stereo not shown)
Second: Cc1ccc(C(c2nnnn2Cc2ccccc2)N2CCc3ccccc3C2)cc1 (stereo not shown) [drawing 151]
The T/C % of the first is lower: 96% for the first, 103% for the second.

Compared with CCC(C)(C)n1nnnc1C(c1cc(OC)ccc1O)N1CCc2ccccc2C1 (stereo not shown), c1ccc(CCn2nnnc2C(c2ccccc2)N2CCc3ccccc3C2)cc1 (stereo not shown) [drawing 142] is higher in T/C %: 100% for the first, 111% for the second.

First: Cc1ccc(S(=O)(=O)Cn2nnnc2C(c2ccc(C(F)(F)F)cc2)N2CCc3ccccc3C2)cc1 (stereo not shown)
Second: c1ccc(C(c2nnnn2C2CCCCC2)N2CCc3ccccc3C2)cc1 (stereo not shown) [drawing 138]
The T/C % of the first is higher: 102% for the first, 98% for the second.

What follows are molecules tested against T1, human PGI2 receptors (hIP) (assay: Method C: effect on epoprostenol-cAMP production curve in CHO/hIP cells (left shift value)). Details: Table 4, concentration of test compound that halves the EC50 of epoprostenol.
Format: cell-based
Experimental: The effect of a test compound on the cAMP production curve with respect to the IP agonist epoprostenol (manufactured by GlaxoSmithKline) was investigated using CHO-K1 cells (CHO/hIP cells) in which human PGI2 receptors (hIP) are stably expressed.
An amount of 5 μL of a mixture (diluted in F-12 culture medium (manufactured by GIBCO) including 0.1% BSA) of epoprostenol dissolved in DMSO and a test compound dissolved in DMSO was dispensed in advance into a 384-well black microplate, and 5 μL of CHO/hIP cells suspended at a concentration of 1.4×10^6 cells/mL in F-12 culture medium including 0.1% BSA were added to the microplate. After 40 minutes of incubation at room temperature, the amount of cAMP was measured using a cAMP assay kit (cAMP HiRange, manufactured by Cisbio Bioassays). Specifically, 5 μL of a cAMP-d2 solution (including a cell lysate) from the kit were added and the reaction was stopped, then 5 μL of a fluorescence-labeled cAMP antibody solution from the kit were added and incubation was performed for 1 hour at room temperature, after which fluorescence was measured using a PHERAstar plate reader (manufactured by BMG) in HTRF (registered trademark) mode. The amount of cAMP in each well was calculated from a cAMP calibration curve obtained using a standard sample, and an epoprostenol-cAMP production curve for the presence of various concentrations of the test compound was created.

Going from CCCOc1ccccc1C(c1nnnn1C(C)(C)C)N1CCc2ccccc2C1 (stereo not shown) [Example 52] to Cc1ccccc1C(c1nnnn1C(C)(C)C)N1CCc2ccccc2C1 (stereo not shown) [Example 55], the left shift value rises from 4.3 µM to 35 µM (8.1-fold).

CC(C)(C)n1nnnc1C(c1ccccc1Cl)N1CCc2ccccc2C1 (stereo not shown) [Example 53] showed a left shift value of 7.2 µM.

Same assay, conditions: Table 5, concentration of test compound that halves the EC50 of epoprostenol

First: CC(C)(C)n1nnnc1C(c1ccccc1)N1CCc2sccc2C1 (stereo not shown) [Example 59, 5-((1-(tert-butyl)-1H-tetrazol-5-yl)(phenyl)methyl)-4,5,6,7-tetrahydrothieno[3,2-c]pyridine]
Second: COc1ccccc1C(c1nnnn1C(C)(C)C)N1CCc2sccc2C1 (stereo not shown) [Example 60, 5-((1-(tert-butyl)-1H-tetrazol-5-yl)(2-methoxyphenyl)methyl)-4,5,6,7-tetrahydrothieno[3,2-c]pyridine]
The left shift value of the first is 1.5-fold higher: 16.1 µM for the first, 10.5 µM for the second.

CC(C)(C)n1nnnc1C(c1cccs1)N1CCc2sccc2C1 (stereo not shown) [Example 62, 5-((1-(tert-butyl)-1H-tetrazol-5-yl)(thiophen-2-yl)methyl)-4,5,6,7-tetrahydrothieno[3,2-c]pyridine] showed a left shift value of 12.2 µM.
